In ChEMBL document CHEMBL3414511, “Synthesis of a novel class of substituted benzothiophene or benzofuran derivatives as BMP-2 up-regulators and evaluation of the BMP-2-up-regulating effects in vitro and the effects on glucocorticoid-induced osteoporosis in rats” (Eur J Med Chem, 2015):
Activity calls are given as the source filed them. The rule behind the calls is not given here.

Tests used:
[1] = system: Rattus norvegicus; experiment: Antiosteoporotic activity in glucocorticoid-induced Wistar rat osteoporosis model assessed as mineral apposition rate at 5 mg/kg/day, po administered six times a week for 3 months by fluorescence assay (reference value: 1.06 +/- 0.27 micrometer/day); type: functional
[2] = system: Rattus norvegicus; experiment: Toxicity in glucocorticoid-induced Wistar rat osteoporosis model assessed as aspartate transaminase level at 5 mg/kg/day, po administered six times a week for 3 months (reference value: 177.55 +/- 116.98 U/L); type: organism-based; set-up: route oral; settings: in vivo
[3] = system: Rattus norvegicus; experiment: Toxicity in glucocorticoid-induced Wistar rat osteoporosis model assessed as alanine transaminase level at 5 mg/kg/day, po administered six times a week for 3 months (reference value: 43.73 +/- 36.21 U/L); type: organism-based; set-up: route oral; settings: in vivo
[4] = system: Rattus norvegicus; experiment: Toxicity in glucocorticoid-induced Wistar rat osteoporosis model assessed as lymph level at 5 mg/kg/day, po administered six times a week for 3 months (reference value: 50.35 +/- 12.96%); type: organism-based; set-up: route oral; settings: in vivo
[5] = system: Rattus norvegicus; experiment: Antiosteoporotic activity in glucocorticoid-induced Wistar rat osteoporosis model assessed as increase in trabecula connectivity at 5 mg/kg/day, po administered six times a week for 3 months by toluidine blue staining-based light microscopic analysis relative to dexamethasone; type: functional, organism-based
[6] = system: Rattus norvegicus; experiment: Antiosteoporotic activity in glucocorticoid-induced Wistar rat osteoporosis model assessed as trabecular bone volume at 5 mg/kg/day, po administered six times a week for 3 months by fluorescence assay (reference value: 33.09 +/- 5.15%); type: functional, Trabecula
[7] = system: Rattus norvegicus; experiment: Antiosteoporotic activity in glucocorticoid-induced Wistar rat osteoporosis model assessed as trabecula resorption surface at 5 mg/kg/day, po administered six times a week for 3 months by fluorescence assay (reference value: 7.22 +/- 2.04%); type: functional
[8] = system: Rattus norvegicus; experiment: Antiosteoporotic activity in glucocorticoid-induced Wistar rat osteoporosis model assessed as increase in trabecula number at 5 mg/kg/day, po administered six times a week for 3 months by toluidine blue staining-based light microscopic analysis relative to dexamethasone; type: functional, organism-based
[9] = system: Rattus norvegicus; experiment: Antiosteoporotic activity in glucocorticoid-induced Wistar rat osteoporosis model assessed as increase in trabecula area at 5 mg/kg/day, po administered six times a week for 3 months by toluidine blue staining-based light microscopic analysis relative to dexamethasone; type: functional, organism-based
[10] = system: Rattus norvegicus; experiment: Antiosteoporotic activity in glucocorticoid-induced Wistar rat osteoporosis model assessed as increase in trabecula thickness at 5 mg/kg/day, po administered six times a week for 3 months by toluidine blue staining-based light microscopic analysis relative to dexamethasone; type: functional, organism-based
[11] = system: Rattus norvegicus; experiment: Toxicity in glucocorticoid-induced Wistar rat osteoporosis model assessed as white blood cells at 5 mg/kg/day, po administered six times a week for 3 months (reference value: 6.28 +/- 2.78 x 10^9/L); type: organism-based; set-up: route oral; settings: in vivo
[12] = system: Rattus norvegicus; experiment: Toxicity in glucocorticoid-induced Wistar rat osteoporosis model assessed as triglycerides level at 5 mg/kg/day, po administered six times a week for 3 months (reference value: 1.13 +/- 0.69 mmol/L); type: organism-based; set-up: route oral; settings: in vivo
[13] = system: Rattus norvegicus; experiment: Toxicity in glucocorticoid-induced Wistar rat osteoporosis model assessed as neutrophilic granulocytes level at 5 mg/kg/day, po administered six times a week for 3 months (reference value: 31.95 +/- 8.33%); type: organism-based; set-up: route oral; settings: in vivo
[14] = system: Rattus norvegicus; experiment: Antiosteoporotic activity in glucocorticoid-induced Wistar rat osteoporosis model assessed as trabecula formation surface at 5 mg/kg/day, po administered six times a week for 3 months by fluorescence assay (reference value: 7.82 +/- 2.46%); type: functional
[15] = system: Rattus norvegicus; experiment: Toxicity in glucocorticoid-induced Wistar rat osteoporosis model assessed as triglycerides level at 0.05 ug/kg/day, po administered six times a week for 3 months (reference value: 1.13 +/- 0.69 mmol/L); type: organism-based; settings: in vivo, 5e-05 mg/kg
[16] = system: Rattus norvegicus; experiment: Toxicity in glucocorticoid-induced Wistar rat osteoporosis model assessed as lymph level at 0.05 ug/kg/day, po administered six times a week for 3 months (reference value: 50.35 +/- 12.96%); type: organism-based; settings: in vivo, 5e-05 mg/kg
[17] = system: Rattus norvegicus; experiment: Antiosteoporotic activity in glucocorticoid-induced Wistar rat osteoporosis model assessed as increase in trabecula area at 0.05 ug/kg/day, po administered six times a week for 3 months by toluidine blue staining-based light microscopic analysis relative to dexamethasone; type: functional, organism-based
[18] = system: Rattus norvegicus; experiment: Antiosteoporotic activity in glucocorticoid-induced Wistar rat osteoporosis model assessed as increase in trabecula connectivity at 0.05 ug/kg/day, po administered six times a week for 3 months by toluidine blue staining-based light microscopic analysis relative to dexamethasone; type: functional, organism-based
[19] = system: Rattus norvegicus; experiment: Antiosteoporotic activity in glucocorticoid-induced Wistar rat osteoporosis model assessed as increase in trabecula thickness at 0.05 ug/kg/day, po administered six times a week for 3 months by toluidine blue staining-based light microscopic analysis relative to dexamethasone; type: functional, organism-based
[20] = system: Rattus norvegicus; experiment: Toxicity in glucocorticoid-induced Wistar rat osteoporosis model assessed as aspartate transaminase level at 0.05 ug/kg/day, po administered six times a week for 3 months (reference value: 177.55 +/- 116.98 U/L); type: organism-based; settings: in vivo, 5e-05 mg/kg
[21] = system: Rattus norvegicus; experiment: Toxicity in glucocorticoid-induced Wistar rat osteoporosis model assessed as white blood cells at 0.05 ug/kg/day, po administered six times a week for 3 months (reference value: 6.28 +/- 2.78 x 10^9/L); type: organism-based; settings: in vivo, 5e-05 mg/kg
[22] = system: Rattus norvegicus; experiment: Antiosteoporotic activity in glucocorticoid-induced Wistar rat osteoporosis model assessed as trabecular bone volume at 0.05 ug/kg/day, po administered six times a week for 3 months by fluorescence assay (reference value: 33.09 +/- 5.15%); type: functional, Trabecula
[23] = system: Rattus norvegicus; experiment: Toxicity in glucocorticoid-induced Wistar rat osteoporosis model assessed as alanine transaminase level at 0.05 ug/kg/day, po administered six times a week for 3 months (reference value: 43.73 +/- 36.21 U/L); type: organism-based; settings: in vivo, 5e-05 mg/kg
[24] = system: Rattus norvegicus; experiment: Antiosteoporotic activity in glucocorticoid-induced Wistar rat osteoporosis model assessed as trabecula resorption surface at 0.05 ug/kg/day, po administered six times a week for 3 months by fluorescence assay (reference value: 7.22 +/- 2.04%); type: functional
[25] = system: Rattus norvegicus; experiment: Antiosteoporotic activity in glucocorticoid-induced Wistar rat osteoporosis model assessed as trabecula formation surface at 0.05 ug/kg/day, po administered six times a week for 3 months by fluorescence assay (reference value: 7.82 +/- 2.46%); type: functional
[26] = system: Rattus norvegicus; experiment: Toxicity in glucocorticoid-induced Wistar rat osteoporosis model assessed as neutrophilic granulocytes level at 0.05 ug/kg/day, po administered six times a week for 3 months (reference value: 31.95 +/- 8.33%); type: organism-based; settings: in vivo, 5e-05 mg/kg
[27] = system: Rattus norvegicus; experiment: Antiosteoporotic activity in glucocorticoid-induced Wistar rat osteoporosis model assessed as increase in trabecula number at 0.05 ug/kg/day, po administered six times a week for 3 months by toluidine blue staining-based light microscopic analysis relative to dexamethasone; type: functional, organism-based
[28] = system: Rattus norvegicus; experiment: Antiosteoporotic activity in glucocorticoid-induced Wistar rat osteoporosis model assessed as mineral apposition rate at 0.05 ug/kg/day, po administered six times a week for 3 months by fluorescence assay (reference value: 1.06 +/- 0.27 micrometer/day); type: functional

O=C(c1ccc(OCCN2CCCCC2)cc1)c1c(-c2ccc(O)cc2)sc2cc(O)ccc12 [RALOXIFENE]
Activity [1]: 1.16 micrometer/day
Activity [2]: 115.27 U/L
Activity [3]: 35.09 U/L
Activity [4]: 39.05%
Activity [5]: Active
Activity [6]: 34.35%
Activity [7]: 7.82%
Activity [8]: Active
Activity [9]: Active
Activity [10]: Active
Activity [11]: 2.94 ×10⁹ /L
Activity [12]: 0.76 mmol/L
Activity [13]: 40.58%
Activity [14]: 7.04%

C=C1/C(=C\C=C2/CCC[C@]3(C)[C@@H]([C@H](C)CCCC(C)C)CC[C@@H]23)C[C@@H](O)C[C@@H]1O [ALFACALCIDOL]
Activity [15]: 0.51 mmol/L
Activity [16]: 34.83%
Activity [17]: Active
Activity [18]: Active
Activity [19]: Active
Activity [20]: 109.73 U/L
Activity [21]: 3.42 ×10⁹ /L
Activity [22]: 28.54%
Activity [23]: 30.64 U/L
Activity [24]: 8.15%
Activity [25]: 6.72%
Activity [26]: 48.13%
Activity [27]: Active
Activity [28]: 1.05 micrometer/day
